Tests used:
Settings in all cases: human erythrocytes; room temperature, 1 h; serial dilutions
SNAld = SNAld (Sambucus nigra, UniProt Q8GTA6)
SNAlm = SNAlm (Sambucus nigra, UniProt Q8GTA5)
nigrin l = nigrin l (Sambucus nigra, UniProt Q8GT32)
Sequence of nigrin l (Q8GT32 26-282 limits assumed): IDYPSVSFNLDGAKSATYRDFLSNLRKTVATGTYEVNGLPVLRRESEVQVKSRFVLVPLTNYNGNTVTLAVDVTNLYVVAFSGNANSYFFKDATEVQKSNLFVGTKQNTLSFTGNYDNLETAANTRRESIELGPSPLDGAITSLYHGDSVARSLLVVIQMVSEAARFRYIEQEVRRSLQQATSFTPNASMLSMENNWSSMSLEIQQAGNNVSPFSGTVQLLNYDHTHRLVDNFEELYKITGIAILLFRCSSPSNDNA
Sequence of nigrin l (Q8GT32 298-563 limits assumed): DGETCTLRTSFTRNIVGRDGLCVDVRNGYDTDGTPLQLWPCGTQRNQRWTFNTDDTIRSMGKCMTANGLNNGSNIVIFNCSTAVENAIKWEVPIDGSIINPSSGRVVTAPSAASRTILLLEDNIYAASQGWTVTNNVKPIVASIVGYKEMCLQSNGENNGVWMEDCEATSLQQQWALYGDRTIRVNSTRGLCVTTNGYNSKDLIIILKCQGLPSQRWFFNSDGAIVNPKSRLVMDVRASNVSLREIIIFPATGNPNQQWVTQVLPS

Sequence of SNAld (Q8GTA6 entry or part of it): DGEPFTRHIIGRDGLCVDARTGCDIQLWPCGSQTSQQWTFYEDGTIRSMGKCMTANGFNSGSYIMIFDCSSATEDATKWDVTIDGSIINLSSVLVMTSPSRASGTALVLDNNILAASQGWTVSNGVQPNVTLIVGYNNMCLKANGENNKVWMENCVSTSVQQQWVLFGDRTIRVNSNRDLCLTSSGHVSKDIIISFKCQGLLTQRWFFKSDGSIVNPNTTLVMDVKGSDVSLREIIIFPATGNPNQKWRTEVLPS
Sequence of SNAlm (Q8GTA5 57-316 limits assumed): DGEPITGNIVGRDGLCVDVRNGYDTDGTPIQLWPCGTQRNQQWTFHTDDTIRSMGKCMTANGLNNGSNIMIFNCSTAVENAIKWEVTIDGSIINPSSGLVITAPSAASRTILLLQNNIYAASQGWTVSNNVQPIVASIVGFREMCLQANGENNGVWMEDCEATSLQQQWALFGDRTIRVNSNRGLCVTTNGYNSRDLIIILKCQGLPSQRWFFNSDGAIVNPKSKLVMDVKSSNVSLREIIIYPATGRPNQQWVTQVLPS

SMILES	SNAld (SNAld) [mM]	SNAlm (SNAlm) [mM]	Nigrin l (nigrin l) [mM]
OC[C@H]1OC(O)[C@H](O)[C@@H](O)[C@H]1O (stereo partly drawn) [D-galactose]	100	6.25	50
OC[C@H]1O[C@@H](O[C@H]2[C@H](O)[C@@H](O)C(O)O[C@@H]2CO)[C@H](O)[C@@H](O)[C@H]1O (stereo partly drawn) [Lactose, β-D-galactopyranosyl-(1→4)-D-glucose]	25	1.56	12.5
